Assay results published in patent US20080262097A1, “Formulations” (priority 2005, published 2008).
Converted amounts (≈) assume the structure as drawn. Read-outs that look alike come from different tables or passages of the source.

Experiments:
[1] = tested on: S. epidermidis (NCTC 11047); assay: Disc diffusion assay (DDA); assay type: cell-based; details: zone diameter, 200 μg per disc
Experimental: (§1) The staphylococci and enterococci were cultured and maintained on Mueller-Hinton Medium (agar and broth) at pH 7.2; they were incubated aerobically at 37° C. for 24 hours.
(§2) A sterile paper disc was impregnated with a sample of the test compound and a minimum of 30 minutes allowed for the solvents to evaporate as far as possible. The disc was then placed on an agar plate onto which the test micro-organism had been inoculated. The plate was then incubated under the conditions described above, following which it was examined visually for signs of bacterial growth. If the test compound had antimicrobial activity, a circular zone of no growth would be obtained around the disc. The diameter of this zone of “inhibition” was measured using a ProtoCOL™ automated zone sizer (Synbiosis, Cambridge, UK). In general, a greater diameter and/or area of the zone of inhibition indicates a greater antimicrobial activity in the relevant test compound, although other factors such as test compound mobility through the agar gel may also influence the result.
(§3) The area of the zone of inhibition was calculated from the measured zone diameter (D) using the formula π(D/2)^2.

[2] = tested on: S. saprophyticus NCTC 7292; assay: Disc diffusion assay (DDA); assay type: cell-based; details: zone diameter, 200 μg per disc
Experimental: as §1, §2, §3

[3] = tested on: Staphylococcus aureus ATCC 12600; assay: Disc diffusion assay (DDA); assay type: cell-based; details: zone diameter, 200 μg per disc
Experimental: as §1, §2, §3

[4] = tested on: Staphylococcus auricularis ATCC 33753; assay: Disc diffusion assay (DDA); assay type: cell-based; details: zone diameter, 200 μg per disc
Experimental: as §1, §2, §3

[5] = tested on: Staphylococcus capitis ATCC 27840; assay: Disc diffusion assay (DDA); assay type: cell-based; details: zone diameter, 200 μg per disc
Experimental: as §1, §2, §3

[6] = tested on: Staphylococcus cohnii ATCC 29974; assay: Disc diffusion assay (DDA); assay type: cell-based; details: zone diameter, 200 μg per disc
Experimental: as §1, §2, §3

[7] = tested on: Staphylococcus haemolyticus ATCC 29970; assay: Disc diffusion assay (DDA); assay type: cell-based; details: zone diameter, 200 μg per disc
Experimental: as §1, §2, §3

[8] = tested on: Staphylococcus hominis ATCC 27844; assay: Disc diffusion assay (DDA); assay type: cell-based; details: zone diameter, 200 μg per disc
Experimental: as §1, §2, §3

[9] = tested on: Staphylococcus simulans ATCC 27848; assay: Disc diffusion assay (DDA); assay type: cell-based; details: zone diameter, 200 μg per disc
Experimental: as §1, §2, §3

[10] = tested on: Staphylococcus warneri ATCC 27836; assay: Disc diffusion assay (DDA); assay type: cell-based; details: zone diameter, 200 μg per disc
Experimental: as §1, §2, §3

[11] = tested on: Staphylococcus xylosus ATCC 29971; assay: Disc diffusion assay (DDA); assay type: cell-based; details: zone diameter, 200 μg per disc
Experimental: as §1, §2, §3

[12] = tested on: S. aureus CPHL EMRSA 15; assay: MBC assay; assay type: cell-based; details: Staphylococcus aureus
Experimental: (§4) Other staphylococcal strains were also tested, as described in Example 5 below. These included certain antibiotic resistant staphylococci, such as the methicillin resistant S. aureus (MRSA) strains EMRSA-15 and EMRSA-16, both available from the Central Public Health Laboratory (CPHL), Colindale, UK. These strains are resistant not only to all beta-lactams but also to a number of other antibiotics in clinical use, making them a serious threat to human health. They are also responsible for the majority (>95%) of hospital-acquired MRSA infections in the UK.
as §1
(§5) This assay, normally carried out after an MIC assay, determines the minimum concentration of a compound that is lethal to the micro-organism being tested.
(§6) These samples were then individually sub-cultured on non-selective agar medium, under the incubation conditions described above. Following incubation they were examined visually for bacterial growth.

[13] = tested on: S. aureus CPHL EMRSA 16; assay: MBC assay; assay type: cell-based; details: Staphylococcus aureus; S. aureus CPHL EMRSA 16 (resistance Met/β-lactams)
Experimental: as §4, §1, §5, §6

[14] = tested on: S. aureus CPHL EMRSA 15; assay: Disc diffusion assay (DDA); assay type: cell-based, Staphylococcus aureus; details: zone diameter, 200 μg per disc
Experimental: as §4, §1, §2, §3

[15] = tested on: S. aureus CPHL EMRSA 16; assay: Disc diffusion assay (DDA); assay type: cell-based, Staphylococcus aureus; details: zone diameter, 200 μg per disc
Experimental: as §4, §1, §2, §3

[16] = tested on: P. acnes PRP-023; assay: MIC assay; assay type: cell-based, Propionibacterium acnes; details: Cutibacterium acnes, PRP023; P. acnes PRP-023 (resistance MLSK)
Experimental: (§7) The Propionibacterium spp organisms were cultured and maintained on Wilkins-Chalgren Anaerobe Medium (agar and broth) at pH 6.0; cultures were incubated anaerobically at 37° C. for 72 hours.
(§8) This is a standard international method for quantitatively assessing the antimicrobial activity of a compound in a liquid medium. The method used a 96-well microtitre plate, capable of holding about 200 μl of liquid per well. […] The culture media were as described above for the relevant test organisms.
(§9) The wells were inoculated with a liquid suspension of freshly grown micro-organism and incubated under the conditions described above. After incubation, the microtitre plate was examined visually (with the aid of a light box) for cell pellets in and/or opaque wells, which would indicate microbial growth. The MIC value was recorded as the lowest concentration of test compound required to inhibit microbial growth, ie, the lowest concentration for which the liquid in the well remained clear.
(§10) The assays were conducted in duplicate and included both negative (culture medium only) and positive (culture medium, diluting solvent and inoculum) controls.

[17] = tested on: P. acnes PRP-059; assay: MIC assay; assay type: cell-based, Propionibacterium acnes; details: Cutibacterium acnes, PRP059; P. acnes PRP-059 (resistance MLS)
Experimental: as §7, §8, §9, §10

[18] = tested on: P. avidum ATCC 25577; assay: MIC assay; assay type: cell-based; details: Cutibacterium avidum, ATCC25577; P. avidum ATCC 25577 (resistance None)
Experimental: as §7, §8, §9, §10

[19] = tested on: P. granulosum NCTC 11865; assay: MIC assay; assay type: cell-based; details: P. granulosum NCTC 11865 (resistance None)
Experimental: as §7, §8, §9, §10

[20] = tested on: P. granulosum PRP-005; assay: MIC assay; assay type: cell-based; details: P. granulosum PRP-005 (resistance MLSK)
Experimental: as §7, §8, §9, §10

[21] = tested on: P. granulosum PRP-043; assay: MIC assay; assay type: cell-based; details: P. granulosum PRP-043 (resistance MLS)
Experimental: as §7, §8, §9, §10

[22] = tested on: P. granulosum PRP-044; assay: MIC assay; assay type: cell-based; details: P. granulosum PRP-044 (resistance MLS)
Experimental: as §7, §8, §9, §10

[23] = tested on: P. granulosum PRP-055; assay: MIC assay; assay type: cell-based; details: P. granulosum PRP-055 (resistance None)
Experimental: as §7, §8, §9, §10

SMILES | DDA [1] [mm] | DDA [2] [mm] | DDA [3] [mm] | DDA [4] [mm] | DDA [5] [mm] | DDA [6] [mm] | DDA [7] [mm] | DDA [8] [mm] | DDA [9] [mm] | DDA [10] [mm] | DDA [11] [mm] | MBC [13] [µg/mL] | DDA [14] [mm] | DDA [15] [mm] | MIC [16] [µg/mL] | MIC [17] [µg/mL] | MIC [18] [µg/mL] | MIC [19] [µg/mL] | MIC [20] [µg/mL] | MIC [21] [µg/mL] | other results
CC(C)(C)c1cc(O)ccc1O [TBHQ, t-butyl hydroquinone] | 57.34 | 41.67 | 49.24 | 80.18 | 73.90 | 60.40 | 51.08 | 64.59 | 53.07 | 54.43 | 49.72 | 3.9 (≈ 23.5 µM) | 55.14 | 67.72 | 3.9 (≈ 23.5 µM) | 3.9 (≈ 23.5 µM) | 3.9 (≈ 23.5 µM) | 3.9 (≈ 23.5 µM) | 62.5 (≈ 376 µM) | 15.6 (≈ 93.9 µM) | MBC ([12]; S. aureus CPHL EMRSA 15 (resistance Met/β-lactams), read-out: MBC): 3.9 µg/mL (≈ 23.5 µM); MIC [22]: 15.6 µg/mL (≈ 93.9 µM); MIC [23]: 3.9 µg/mL (≈ 23.5 µM)
O=C(OOC(=O)c1ccccc1)c1ccccc1 [benzoyl peroxide] | 10.65 | 11.38 | 11.99 | 21.56 | 12.46 | 11.51 | 11.10 | 11.83 | 9.94 | 12.04 | 10.99 | 250 (≈ 1030 µM) | 10.17 | 10.80 | 31.2 (≈ 129 µM) | 62.5 (≈ 258 µM) | 31.2 (≈ 129 µM) | 15.6 (≈ 64.4 µM) | 15.6 (≈ 64.4 µM) | 62.5 (≈ 258 µM) | MBC [12]: 125 to 250 µg/mL (≈ 516 to 1030 µM); MIC [22]: 31.2 µg/mL (≈ 129 µM); MIC [23]: 15.6 µg/mL (≈ 64.4 µM)
